According to patent publication US7504538B2, “Amide or thioamide derivatives and their use in the treatment of pain” (Cara Therapeutics, Inc., priority 2003, dated 2009):

How the values were obtained:
hCB2-R = molecular target: T1, hCB2-R (Homo sapiens, UniProt P34972); assay: CB2 ligand binding assay ([3H]-CP55940 displacement, CHO-K1 membranes); conditions: 0.3-0.5 nM [3H]-CP55940, CB2 membranes, 2 h at 30° C.; read-out: Binding constants (Ki) to hCB2-R
T1 construct: expressed in transfected cells; membranes
Source text: (§1) The biological assays used were essentially set up as described in Munro, S., Thomas, K. L., Abu-Shaar, M. in “Molecular characterisation of a peripheral receptor for cannabinoids” Nature 365:61-65 (1993) and Kim, S. H. and Chung, J. M. in “An experimental model for peripheral neuropathy produced by segmental spinal nerve ligation in the rat” Pain 50:355-363 (1992).
Monoclonal HEK cell lines with stable expression of the human CB1 receptor and CHO-K1 cell lines with stable expression of hCB2-R were established. The CB binding assays were performed with membranes prepared from these cell lines. The CB2 ligand binding mixture contains 0.3-0.5 nM [^3H]-CP55940, 7 μg of CB2 membranes and the test compounds in a concentration range of from 1.0×10^−4 to 1.0×10^−12 M. The assay buffer comprises 50 mM Tris-HCl (pH 7.4), 5 MM MgCl2, 2.5 mM EDTA and 5 mg/ml fatty acid-free bovine serum albumin. The binding mixtures are incubated for 2 h at 30° C. and terminated by rapid filtration (Brandel 96 well cell harvester) over 934AH filters (Whatman) followed by 6 washes with ice-cold binding buffer. The filters are dried and [^3H]-CP55940 bound radioactivity is determined by liquid scintillation counting. Non-specific binding is determined in the presence of 10 μM CP55940. The binding data is analysed with the program GraphPad Prism (provided by GraphPad Software, San Diego, Calif., USA).

rats [1] = assay: Formalin flinch test (inflammatory pain); assay type: in vivo; conditions: rat; for A50 Formalin Phase II: inflammatory phase (10-60 min); for A50 Formalin Phase I: tonic phase (first 10 min)
Source text: as §1
(§2) Inflammatory (Formalin flinch test) and chronic pain (L5/L6 nerve ligation injury) models were used as assays in both rats and mice.
Animals are habituated to the their local environment for about 30 min prior to testing. The formalin test is carried out in a 30×30×30 cm chamber with the front and bottom of the chambers made of clear plexiglass. Mirrors are placed at a 45° angle under the chambers in order to have an un-obstructive view of the paws. Animals are restrained manually and 2% formalin (aq) is injected subcutaneously into the planar surface of the left paw with a 30 gauge needle. The numbers of paw flinches are then recorded in 5 min intervals from the time of injection for a 60 min period. Elevations of the paw, licking and biting of the injected paw were counted as “flinches”. The tonic or “first phase” of the nociceptive response peaked at 5 min after formalin injection and the inflammatory or “second phase” peaked at 30 min after formalin injection. The number of flinches in the first 10 min were representative of the tonic phase and the number of flinches from 10 min until 60 min were representative of the inflammatory phase. Antinociception for both phase I and phase II was calculated as follows: % antinociception=100×(# of flinches in control animal−# of flinches in drug treated animal)/(# of flinches in control animal)
Potency (A50) is calculated from the full dose response curve for both phase I and phase II.

rats [2] = assay: L5/L6 nerve ligation injury, tactile allodynia (von Frey); assay type: in vivo; conditions: rat
Source text: as §1, §2
Nerve ligation injury was performed according to the method described previously (Kim and Chung). This methodology produces signs of tactile allodynia and thermal hyperalgesia. Rats were anesthetized with halothane and the L5 and L6 spinal nerves were exposed, carefully isolated, and tightly ligated with 4-0 silk suture distal to the dorsal root ganglia (DRG). After ensuring homeostatic stability the wounds were sutured, and the animals were allowed to recover in individual cages. Sham-operated rats were prepared in an identical fashion except that the L5 and L6 spinal nerves were not ligated. Compound 17 was tested in rats after L5/L6 nerve ligation. […]
In the evaluation of the tactile allodynia, the paw withdrawal threshold was determined in response to probing with calibrated von Frey filaments. […] The 50% paw withdrawal threshold was determined by the nonparametric method. […]

rats [3] = assay: L5/L6 nerve ligation injury, thermal hyperalgesia; assay type: in vivo; conditions: rat
Source text: as §1, §2
Nerve ligation injury was performed according to the method described previously (Kim and Chung). This methodology produces signs of tactile allodynia and thermal hyperalgesia. Rats were anesthetized with halothane and the L5 and L6 spinal nerves were exposed, carefully isolated, and tightly ligated with 4-0 silk suture distal to the dorsal root ganglia (DRG). After ensuring homeostatic stability the wounds were sutured, and the animals were allowed to recover in individual cages. Sham-operated rats were prepared in an identical fashion except that the L5 and L6 spinal nerves were not ligated. Compound 17 was tested in rats after L5/L6 nerve ligation. Compound administration was directly into the hind paw (i.paw) or into the peritoneal cavity (i.p.).

T1 sequence (P34972 whole entry): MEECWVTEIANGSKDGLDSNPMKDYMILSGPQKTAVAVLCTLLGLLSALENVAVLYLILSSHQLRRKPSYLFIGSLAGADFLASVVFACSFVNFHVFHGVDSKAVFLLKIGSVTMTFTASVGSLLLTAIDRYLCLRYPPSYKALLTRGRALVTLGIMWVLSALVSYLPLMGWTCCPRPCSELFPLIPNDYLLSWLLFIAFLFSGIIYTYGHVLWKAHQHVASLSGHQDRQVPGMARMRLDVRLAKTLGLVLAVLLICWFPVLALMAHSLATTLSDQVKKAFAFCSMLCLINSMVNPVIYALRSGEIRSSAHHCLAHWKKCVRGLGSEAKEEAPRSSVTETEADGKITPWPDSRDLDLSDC

| SMILES | Ki (hCB2-R) [µM] | other results |
| --- | --- | --- |
| NC(=O)[C@@H]1CCCC[C@H]1N(CCCC1CCCCC1)C(=O)Nc1ccccc1 (relative stereo) [Compound 7, trans-2-[1-(3-cyclohexylpropyl)-3-phenylureido]cyclo-hexanecarboxamide] | 1.5 |  |
| CC(C)CCCN(CCCC(N)=O)C(=O)Nc1ccccc1 [Compound 5, 4-[1-(4-methylpentyl)-3-phenylureido]butyramide] | 1.1 |  |
| CCCCc1ccc(CN(CCCC(N)=O)C(=O)Nc2ccccc2)cc1 [Compound 3, 4-[1-(4-butylbenzyl)-3-phenylureido]butyramide] | 0.12 |  |
| O=C(CCCN(CCCC1CCCCC1)C(=O)Nc1ccccc1)NCc1ccc(Cl)cc1 [Compound 6, N-(4-chlorobenzyl)-4-[1-(3-cyclohexylpropyl)-3-phenyl-ureido]butyramide] | 2.2 |  |
| NC(=O)CCCN(CCCCCCc1ccccc1)C(=O)Nc1ccccc1 [Compound 2, 4-[3-phenyl-1-(6-phenylhexyl)ureido]butyramide] | 0.45 |  |
| NC(=O)CCCN(CCc1ccc2ccccc2c1)C(=O)Nc1ccccc1 [Compound 11, 4-[1-(2-naphthalen-2-yl-ethyl)-3-phenylureido]butyr-amide] | 0.77 |  |
| NC(=O)CCCN(CCc1ccccc1)C(=O)Nc1ccccc1 [Compound 13, 4-(1-phenethyl-3-phenylureido)butyramide] | 0.45 |  |
| NC(=O)CCCN(CCC1CCCCC1)C(=O)Nc1ccccc1 [Compound 12, 4-[1-(2-cyclohexylethyl)-3-phenylureido]butyramide] | 0.41 |  |
| NC(=O)CCCN(CCCC1CCCC1)C(=O)Nc1ccccc1 [Compound 15, 4-[1-(3-cyclopentylpropyl)-3-phenylureido]butyr-amide] | 0.21 |  |
| CC(C)c1ccc(CN(CCCC(N)=O)C(=O)Nc2ccccc2)cc1 [Compound 4, 4-[1-(4-isopropylbenzyl)-3-phenylureido]butyramide] | 0.78 |  |
| NC(=O)CCCN(Cc1ccccc1)C(=O)Nc1ccccc1 [Compound 14, 4-(1-benzyl-3-phenylureido)butyramide] | 0.84 |  |
| C[C@@H](C(=O)N(CCCC(N)=O)CCCC1CCCCC1)c1ccccc1 [Compound 1, (R)-4-[(3-cyclohexylpropyl)-(2-phenylpropionyl)amino]-butyramide] | 2.9 |  |
| Cc1c(C(=O)c2cccc3ccccc23)c2cccc3c2n1[C@H](CN1CCOCC1)CO3 [WIN-55, 212-2, reference compound] |  | A50 Formalin Phase II (rats [1]; i. paw): 25 mg/paw; A50 Formalin Phase I (rats [1]; i. paw): 12 mg/paw |
| NC(=O)CCCCCCCN(CCCC1CCCCC1)C(=O)Cc1ccc2ccccc2c1 [Compound 9, 8-[(3-cyclohexylpropyl)-(2-naphthalen-2-yl-acetyl)amino]-octanamide] | 15 |  |
| NC(=O)CCCN(CCCC1CCCCC1)C(=O)Nc1ccc2ccccc2c1 [Compound 10, 4-[1-(3-cyclohexylpropyl)-3-naphthalen-2-yl-ureido]-butyramide] | 1 |  |
| NC(=O)CCCN(CCCCCc1ccccc1)C(=O)Nc1ccccc1 [Compound 16, 4-[3-phenyl-1-(5-phenylpentyl)ureido]butyramide] | 0.13 |  |
| NC(=O)CCCN(CCCC1CCCCC1)C(=O)Nc1ccccc1 [Compound 17, 4-[1-(3-cyclohexylpropyl)-3-phenylureido]butyramide] | 0.11 | A50 Formalin Phase II (rats [1]; i. paw): 28 mg/paw; A50 Formalin Phase I (rats [1]; i. paw): <10 mg/paw; A50 Formalin Phase II (rats [1]; i.p.): 0.01 mg/kg; A50 Formalin Phase I (rats [1]; i.p.): <0.01 mg/kg; antiallodynic effect (rats [2]; L5/L6 nerve ligation, 100 μg (in 50 μl) into the paw): 90%; A50 L5/L6 anti-allodynia (rats [2]; i. paw): <30 mg/paw; antihyperalgesic response to the thermal testing (rats [3]; L5/L6 spinal nerve ligation, 30 μg (in 50 μl) into the paw): 100%; A50 L5/L6 anti-hyperalgesia (rats [3]; i. paw): <30 mg/paw |
| NC(=O)CCCN(CCCC1CCCCC1)C(=O)Cc1ccc2ccccc2c1 [Compound 8, 4-[(3-cyclohexylpropyl)-(2-naphthalen-2-yl-acetyl)amino]-butyramide] | 2.7 |  |
